# From US11135223B2, “Compositions and methods for inhibiting Dkk-1” (YALE UNIVERSITY, priority 2016, dated 2021)
# Target: T1, Dkk-1 (Mus musculus, UniProt O54908)
# T1 construct: the primary circulating source of Dkk-1 in during both homeostatic and allergen-challenged conditions is platelets; from tissue; host or cells: living C57BL/6 mice; circulating Dkk-1 released from platelets
# T1 sequence (O54908 32-272): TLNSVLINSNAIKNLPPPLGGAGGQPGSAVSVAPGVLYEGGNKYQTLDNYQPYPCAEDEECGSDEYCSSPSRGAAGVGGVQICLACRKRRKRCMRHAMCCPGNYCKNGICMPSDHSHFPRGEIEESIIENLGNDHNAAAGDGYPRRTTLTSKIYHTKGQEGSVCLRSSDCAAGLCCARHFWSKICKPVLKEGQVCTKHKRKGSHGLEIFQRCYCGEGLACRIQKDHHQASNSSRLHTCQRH
# Assay: House dust mite (HDM)-induced asthma model
# Assay type: in vivo, mice
# From the text: FIG. 1, comprising FIG. 1A through FIG. 1F, depicts results of experiments showing the characterization of Dkk-1^d/d mice. FIG. 1A depicts flow cytometry analysis of single cell suspensions from spleen of six to ten week-old Dkk-1^d/d mice (n=5) and their wildtype littermate controls (n=3). FIG. 1B depicts flow cytometry analysis of single cell suspensions from bone marrow of six to ten week-old Dkk-1^d/d mice (n=5) and their wildtype littermate controls (n=3). FIG. 1C depicts ELISA analysis of splenic CD4 T cells isolated by MACS and stimulated with anti-CD3 and anti-CD28 mAb (2 μg/ml) for 4 days. FIG. 1C depicts percentage of cells in peripheral blood from ten to twelve week-old Dkk-1^d/d mice (n=5) and their wildtype littermate controls (n=5) measured by HEMAVAT analyzer. WBC (White blood cells), NE (Neutrophils), LY (Lymphocytes), MO (Monocytes), EO (Eosinophils) were counted. FIG. 1D depicts cell number in peripheral blood from ten to twelve week-old Dkk-1^d/d mice (n=5) and their wildtype littermate controls (n=5) measured by HEMAVAT analyzer. WBC (White blood cells), NE (Neutrophils), LY (Lymphocytes), MO (Monocytes), EO (Eosinophils) were counted. FIG. 1F depicts airway resistance of Dkk-1^d/d and C57Bl/6 mice. […] Control group mice (n=3) were challenged with PBS. […] Dkk-1 inhibitor (10 mg/kg) was injected intraperitoneally at day −1, +1, +6, +8, +10, and +12. Student's t-test was used. n.s, not significant. Small horizontal lines indicate the mean (±s.e.m.). *, p<0.05
# FIG. 11, comprising FIG. 11A through FIG. 11J, depicts results of experiments showing Dkk-1 facilitates leukocyte migration and regulates leukocyte-platelet aggregate formation in type 2 inflammation. FIG. 11A depicts flow cytometry analysis of CD45^+ cells in lung homogenates from nine-week old Dkk-1^d/d mice and wildtype littermate controls (n=5-6/group) 72 hours after challenge with 30 μg HDM allergen extract. FIG. 11B depicts analysis of percentages of CD45^+CD41^+ cells in peripheral blood from nine-week old Dkk-1^d/d mice and wildtype littermate controls collected at 4 hours and 24 hours after allergen challenge. FIG. 11C depicts flow cytometry analysis of CD45+ cells after Dkk-1 protein (300 ng/mouse) was injected intraperitoneally. FIG. 11D depicts a schematic diagram of Dkk-1 inhibitor treatment protocol for each group (n=5 for each group) in the HDM-induced asthma model. HDM allergen extract (10 μg) was challenged intranasally at the indicated time points. FIG. 11E depicts analysis of CD45^+ leukocytes numbers in BALF and Lung after Dkk-1 inhibitor treatment in the HDM-induced asthma model. FIG. 11F depicts analysis of neutrophils, eosinophils, and CD4 T cell numbers in the lungs after Dkk-1 inhibitor treatment in the HDM-induced asthma model. FIG. 11G depicts analysis of the number of CD4 T cells in mediastinal LNs. FIG. 11H depicts ELISA analysis of cytokines after 4 days of stimulation of med LN cells. FIG. 111 depicts scoring of H&E staining. FIG. 11J depicts scoring of PAS staining.
# FIG. 13, comprising FIG. 13A through FIG. 13C, depicts results of experiments showing pharmacological antagonism of Dkk-1 in the HDM-induced asthma model. FIG. 13A depicts neutrophils and eosinophils in BALF. FIG. 13B depicts CD4 T cell percentages in med LNs measured by flow cytometry. FIG. 13C depicts representative images H&E and PAS staining. One-way ANOVA analysis with Dunnet's post-hoc test was performed. **, p<0.005, *, p<0.05.
# FIG. 18 depicts results of experiments showing a Dkk-1 monoclonal antibody treatment protects […] mice from house dust mite (HDM)-induced asthma. Six-week-old female C57Bl/6 mice were treated with PBS(n=4), HDM(n=5), HDM and isotype antibody (n=5), and HDM plus Dkk-1 mAb (n=5). 10 μg of HDM was treated intranasally on day 0, 7, 8, 9, 10 and 11. Isotype antibody or Dkk-1 mAb was treated on day −1, +1, +6, +8, and +10. On day 14, mice were sacrificed and the lungs were harvested. fHCD45+ leukocytes were counted by flow cytometry. […]
structure (smiles),measurement,setting,value
"NCC1CCN(c2nccc(-c3ccc4ccccc4c3)n2)CC1 [WAY-262611, (1-(4-(naphthalen-2-yl)pyrimidin-2-yl)piperidin-4-yl)methanamine]",airway resistance increase by HDM,"C57Bl/6 mice, Dkk-1 inhibitor 10 mg/kg intraperitoneally, FIG. 1F",notably decreased
same,number of CD4 T cells in mediastinal lymph nodes,FIG. 11G,reduced
same,"Leukocyte infiltration including CD4 T cells, neutrophils, and eosinophils in BAL fluid and lung tissues","both ET (early treatment) and LT (late treatment) protocols, FIG. 11E, 11F, 13A",markedly decreased
same,"histopathological scores (H&E, PAS)","challenge stage or sensitization stage treatment, FIG. 11I, 11J, 13C",inhibition of type 2 inflammatory responses
same,TH2 cytokine secretion from mediastinal lymph nodes,"ex vivo stimulation of med LN cells 4 days, FIG. 11H",diminished
same,percentage of CD4 T cells in the lymph nodes,"mediastinal lymph nodes, FIG. 13",did not change
